Assay results published in US4256750A, “Pharmaceutical compositions” (Wulfing; Johann A., priority 1979, dated 1981).
Several values for one entry are separate records, joined by “and”; a condition that tells them apart may be missing. Equal values may be shown once.

Tests used:
[1] = test system: ischaemic skeletal muscle (m. gastrocnemius); assay: pO2 (oxygen tension) measurement in ischaemic skeletal muscle of anaesthetized cats; type: in vivo, cat; conditions: for effect of Compound A, ΔpO2: 125 μg/kg i.v.; for effect of Compound A, ΔpO2 / effect of Compound B, ΔpO2: individual cats; for change of pO2 of ischaemic skeletal muscle (in words): B and C at 5-32 mg/kg compared with Compound A at 125 μg/kg; for effect of Compound B, ΔpO2: 5 mg/kg i.v.
Description: pO2 was measured polarographically using Pt-needle electrodes (modified according to Baumgartl and Lubbers, 1973). The reference electrode, an Ag/A/AgCl system was sputtered on the glass mantle of the cathode, or it was a separate electrode. The cathode was coated with a polystyrol and a collodium membrane. A constant voltage supply provided a polarizing voltage between 600 and 800 mV. The reducing current was measured by a nano-ampere amplifying meter. The cathode was inserted in the tissue by means of a motor-driven micromanipulator.
A pO2 -electrode was inserted in the muscle tissue (m. gastrocnemius) of both hindlegs of an anaesthetized cat. After recording the pO2 of the normal perfused muscle, the blood flow to one measuring site was restricted by ligating the femoral artery. The pO2 dropped steeply and the tissue became ischaemic. After a few minutes, the pO2 increased and then decreased again. The values were constant after 30 to 60 min. After having reached a constant level of pO2, the vehicle was given, followed by the test substance.
The mean value and the standard deviation were calculated, in order to check the significance of the effect.

[2] = test system: ischaemic skeletal muscle (calf muscles); assay: Skeletal muscle contractility in anaesthetized cats with restricted femoral blood flow; type: in vivo, cat; conditions: for change of contractility of ischaemic skeletal muscle (in words) / contractility (% initial value): cat; for change of contractility of ischaemic skeletal muscle (in words): B and C at 5-32 mg/kg compared with Compound A at 125 μg/kg; for contractility (% initial value): ischaemic muscle
Description: (§1) Cats of either sex were anaesthetized with urethane/chloralose (120/60 mg/kg i.p.). In the course of the experiments, pentobarbital was injected intravenously (V. antebrachii ceph.) via a plastic tube. The intraduodenal (i.d.) application of compound was conducted by means of a plastic catheter, which was inserted into the duodenum.
(§2) Cats of either sex were anaesthetized as for pO2 measurement. After dissection of the skin of the calf muscles, the sciatic nerve was cut about 3 cm proximal to the knee. The tendon of the calf muscles was cut and connected with an isometric force transducer (SWEMA, SG 3). In order to maintain constant differences and a resting tension of 100 p, the hind limb was fixed at the tibia by means of a clamp. Direct stimulation of the muscles consisted of square wave pulses of 4 msec duration at a frequency of 2 Hz and at a voltage of 50 V. In order to keep the muscles wet and at a normal temperature, the muscles were continuously superfused by means of a NaCl-solution (0.9%, 38° C.). Femoral blood flow was restricted by a graded occlusion of the artery leading to a reduction of contractility by ca. 30%. After having reached a constant level of the contraction force, the vehicle (NaCl and Methocel, respectively) was injected, followed by the test substance.

[3] = Blood pressure (BP) change in the cat contractility experiment (Table 3); type: in vivo
Description: as §1, §2

[4] = Solubility in water / aqueous media; type: physicochemical
[5] = in vivo; cited from earlier work
[6] = control (hind limb not ligated)
[7] = contractility and pO2 of ischaemic skeletal muscle, cat
[8] = i.d., Compound A 125 μg/kg, Compound B 32 mg/kg, Compound C 12.5 mg/kg
[9] = i.v., Compound A 50 μg/kg, Compound B 5 mg/kg

CCCCn1c(=O)c2c(ncn2CC(C)=O)n(CCCC)c1=O [Compound A, 1,3-di-n-butyl-7-(2-oxopropyl)xanthine]
effect of Compound A, ΔpO2 [1, 6]: 13.2 Torr and 3.8 Torr and 3.5 Torr and 19.3 Torr and 3.4 Torr
effect of Compound A, ΔpO2 ([1]; hind limb art. ligation): 6.2 Torr and 7.3 Torr and 5.2 Torr and 27.1 Torr and 11.2 Torr and 5.6 Torr
change of pO2 of ischaemic skeletal muscle (in words) ([1]; cat): distinct increase
high activity in the μg-range (dose range) [1, 7]: 0.05 to 0.125 mg/kg
Δ muscle contract., t (time interval to reach initial values) ([2]; 50 μg/kg i.v.): > 60 min
Δ muscle contract. ([2]; 50 μg/kg i.v., mean, n 4): +36.0 percentage of initial values
Δ muscle contract., t (time interval to reach initial values) ([2]; 125 μg/kg i.v.): > 60 min
Δ muscle contract. ([2]; 125 μg/kg i.v., mean): +19.0 percentage of initial values
Δ muscle contract. ([2]; 313 μg/kg i.v., n = 1): +25.0 percentage of initial values
Δ muscle contract., t (time interval to reach initial values) ([2]; 313 μg/kg i.v., n = 1): > 60 min
change of contractility of ischaemic skeletal muscle (in words) [2]: distinct increase
contractility (% initial value) [2, 8]: 32 % initial value
contractility (% initial value) [2, 9]: 36 % initial value
Δ initial phase BP decrease, t (time interval to reach initial values) ([3]; 50 μg/kg i.v.): 2 min
Δ second phase BP increase, t (time interval to reach initial values) ([3]; 50 μg/kg i.v.): 33 min
Δ initial phase BP decrease ([3]; 50 μg/kg i.v., mean, n 4): -14.0 percentage of initial values
Δ second phase BP increase ([3]; 50 μg/kg i.v., mean, n 4): +17.0 percentage of initial values
Δ initial phase BP decrease, t (time interval to reach initial values) ([3]; 125 μg/kg i.v.): 3 min
Δ second phase BP increase, t (time interval to reach initial values) ([3]; 125 μg/kg i.v.): 32 min
Δ initial phase BP decrease ([3]; 125 μg/kg i.v., mean): -23.1 percentage of initial values
Δ second phase BP increase ([3]; 125 μg/kg i.v., mean): +10.8 percentage of initial values
Δ initial phase BP decrease ([3]; 313 μg/kg i.v., n = 1): -25.0 percentage of initial values
Δ initial phase BP decrease, t (time interval to reach initial values) ([3]; 313 μg/kg i.v., n = 1): 2 min
Δ second phase BP increase ([3]; 313 μg/kg i.v., n = 1): +15.0 percentage of initial values
Δ second phase BP increase, t (time interval to reach initial values) ([3]; 313 μg/kg i.v., n = 1): 6 min
solubility in aqueous media (in words) ([4]; aqueous media): only sparingly soluble

CC(=O)CCCCn1c(=O)c2c(ncn2C)n(C)c1=O [Compound B, pentoxyphylline, reference compound]
effect of Compound B, ΔpO2 [1, 6]: 0.3 Torr and 1.02 Torr and -2.4 Torr and 14.3 Torr and -0.9 Torr
effect of Compound B, ΔpO2 ([1]; hind limb art. ligation): -0.16 Torr and -1.5 Torr
Mean effect of Compound B compared to Compound A ([1]; B 5 mg/kg vs A 125 μg/kg, i.v.): 21.3%
change of pO2 of ischaemic skeletal muscle (in words) ([1]; cat): less pronounced
change of contractility of ischaemic skeletal muscle (in words) [2]: less pronounced
contractility (% initial value) [2, 8]: 23 % initial value
contractility (% initial value) [2, 9]: 9 % initial value
oral toxicity (in words) [5]: low oral toxicity

CCCCn1c(=O)c2c(ncn2CCC(C)=O)n(CCCC)c1=O [Compound C, 1,3-di-n-butyl-7-(3-oxobutyl)xanthine, reference compound]
change of pO2 of ischaemic skeletal muscle (in words) ([1]; cat): less pronounced
dose range of activity [1, 7]: 5 to 32 mg/kg
change of contractility of ischaemic skeletal muscle (in words) [2]: less pronounced
contractility (% initial value) [2, 8]: 22 % initial value
water solubility (in words) ([4]; water, reason for not testing i.v.): low water solubility
